Laboratory results published in paper PMC10527105, “Chirality Matters: Fine-Tuning of Novel Monoamine Reuptake Inhibitors Selectivity through Manipulation of Stereochemistry” (Biomolecules, 2023).
Read-outs that look alike come from different tables or passages of the source.

Legend:
Type in all cases: cell-based
[1] = target: T1, noradrenaline transporter/SLC6A2 (NET) (Homo sapiens, UniProt P23975); test: Cellular uptake experiments: [3H]-noradrenaline reuptake inhibition in transporter-expressing HEK293 cells
T1 construct: expressed in transfected cells; host or cells: HEK293
T1 sequence (P23975 whole entry): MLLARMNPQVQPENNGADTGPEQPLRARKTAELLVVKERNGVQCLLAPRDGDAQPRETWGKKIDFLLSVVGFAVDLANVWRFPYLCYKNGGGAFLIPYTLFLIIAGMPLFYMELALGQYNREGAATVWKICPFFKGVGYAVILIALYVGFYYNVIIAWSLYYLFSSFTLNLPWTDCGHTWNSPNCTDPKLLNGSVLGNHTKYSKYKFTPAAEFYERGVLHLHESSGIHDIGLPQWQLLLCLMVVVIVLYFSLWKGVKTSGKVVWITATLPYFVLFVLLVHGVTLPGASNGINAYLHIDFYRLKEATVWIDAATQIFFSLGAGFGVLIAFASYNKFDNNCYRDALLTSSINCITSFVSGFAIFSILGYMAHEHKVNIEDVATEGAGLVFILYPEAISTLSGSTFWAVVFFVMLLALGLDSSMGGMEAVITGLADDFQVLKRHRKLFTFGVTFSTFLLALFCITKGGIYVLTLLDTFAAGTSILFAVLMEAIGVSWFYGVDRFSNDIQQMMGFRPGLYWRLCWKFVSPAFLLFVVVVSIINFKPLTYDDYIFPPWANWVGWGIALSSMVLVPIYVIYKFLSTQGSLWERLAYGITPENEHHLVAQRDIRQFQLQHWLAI
Protocol: (§1) Cell culture. Human embryonic kidney (HEK) 293 or SK-N-MC (human neuroblastoma) cells were grown in minimum essential medium with Earle’s salts and L-glutamine, 10% heat-inactivated fetal bovine serum, and 50 mg/L gentamicin. Cells were grown in 100- or 60-mm diameter tissue culture dishes (polystyrene, Falcon) at 37 °C under an atmosphere of 5% CO2/95% air. The human dopamine transporter/SLC6A3 (DAT), noradrenaline transporter/SLC6A2 (NET), or human serotonin transporter/SLC6A4 (SERT) cDNA was stably expressed using methods as described previously.
(§2) Cellular uptake experiments. The transporter-expressing HEK293 cells were seeded in poly-D-lysine-coated 24-well plates (1 × 10^5 cells/well) and, one day later, each well was washed with 0.5 mL uptake buffer and incubated with 0.5 mL buffer containing various concentrations of the drugs. Uptake was started by the addition of [^3H]-dopamine, [^3H]-noradrenaline, or [^3H]-serotonin at a final concentration of 1 µM (specific activity 0.14 Ci/mmol) after 5 min of preincubation. After incubation for 2.5 min (SERT-cells: 5 min) at 25 °C, it was stopped by aspirating the uptake buffer and washing each well twice with 1 mL ice-cold buffer. Nonspecific uptake was determined in the presence of 10 µM mazindol (DAT- and NET-cells) or 10 µM clomipramine (SERT-cells). The radioactivity remaining in each well was determined by incubating with 0.4 mL 1% sodium dodecyl sulphate and transferring this solution into scintillation vials containing 3 mL of scintillation cocktail (Ultima Gold MV, Packard, Dovners Grove, IL, USA). The uptake buffer consisted of (mmol/L): 4 Tris–HCl; 6.25 4-(2-hydroxyethyl)-1-piperazineethanesulfonic acid (HEPES); 120 NaCl; 5 KCl; 1.2 CaCl2; 1.2 MgSO4; 5.6 D-glucose; 0.5 ascorbic acid; pH 7.1.

[2] = target: T2, human serotonin transporter/SLC6A4 (SERT) (Homo sapiens, UniProt P31645); test: Cellular uptake experiments: [3H]-serotonin reuptake inhibition in transporter-expressing HEK293 cells
T2 construct: expressed in transfected cells; host or cells: HEK293
T2 sequence (P31645 whole entry): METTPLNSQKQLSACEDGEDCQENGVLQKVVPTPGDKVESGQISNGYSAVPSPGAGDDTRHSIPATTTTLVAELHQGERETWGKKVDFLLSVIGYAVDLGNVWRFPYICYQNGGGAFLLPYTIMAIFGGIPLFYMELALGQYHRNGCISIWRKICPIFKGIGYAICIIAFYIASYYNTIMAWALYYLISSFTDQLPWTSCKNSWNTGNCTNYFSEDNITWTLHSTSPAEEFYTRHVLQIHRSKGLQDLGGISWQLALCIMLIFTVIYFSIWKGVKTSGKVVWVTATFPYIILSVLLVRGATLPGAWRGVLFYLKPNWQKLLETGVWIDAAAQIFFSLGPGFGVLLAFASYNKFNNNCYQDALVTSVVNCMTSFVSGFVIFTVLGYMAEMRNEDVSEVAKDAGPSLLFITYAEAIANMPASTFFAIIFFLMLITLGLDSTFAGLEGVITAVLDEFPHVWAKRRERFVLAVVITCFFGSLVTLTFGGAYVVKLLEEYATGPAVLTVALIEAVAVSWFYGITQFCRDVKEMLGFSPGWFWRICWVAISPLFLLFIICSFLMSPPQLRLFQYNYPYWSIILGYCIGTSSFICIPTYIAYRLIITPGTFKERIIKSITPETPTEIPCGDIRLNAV
Protocol: as §1, §2

[3] = target: T3, human dopamine transporter/SLC6A3 (DAT) (Homo sapiens, UniProt Q01959); test: Cellular uptake experiments: [3H]-dopamine reuptake inhibition in transporter-expressing HEK293 cells; details: for IC50: cells stably expressing DAT, [3H]-dopamine 1 µM, screening cut-off 50 µM; for activity on DAT (reuptake inhibition), in words: at 50 µM
T3 construct: expressed in transfected cells; host or cells: HEK293
T3 sequence (Q01959 whole entry): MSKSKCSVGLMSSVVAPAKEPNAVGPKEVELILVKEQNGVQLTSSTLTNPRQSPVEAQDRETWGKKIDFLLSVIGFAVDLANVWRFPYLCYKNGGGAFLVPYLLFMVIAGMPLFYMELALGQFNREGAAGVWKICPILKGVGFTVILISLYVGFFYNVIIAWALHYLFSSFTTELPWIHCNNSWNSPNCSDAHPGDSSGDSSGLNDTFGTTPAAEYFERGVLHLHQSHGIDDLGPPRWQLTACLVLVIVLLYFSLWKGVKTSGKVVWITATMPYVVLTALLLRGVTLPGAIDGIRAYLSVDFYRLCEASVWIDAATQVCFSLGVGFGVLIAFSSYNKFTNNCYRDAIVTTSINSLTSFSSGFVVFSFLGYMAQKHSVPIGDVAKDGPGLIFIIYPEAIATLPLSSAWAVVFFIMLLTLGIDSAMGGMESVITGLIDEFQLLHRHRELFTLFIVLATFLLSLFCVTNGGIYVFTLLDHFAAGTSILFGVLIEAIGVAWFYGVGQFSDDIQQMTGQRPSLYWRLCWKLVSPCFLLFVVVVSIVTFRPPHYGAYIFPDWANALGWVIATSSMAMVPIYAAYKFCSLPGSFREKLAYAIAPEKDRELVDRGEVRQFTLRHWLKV
Protocol: as §1, §2

[4] = cells stably expressing NET; [3H]-noradrenaline 1 µM; screening cut-off 50 µM; read-out: Reuptake Inhibition (IC50 ± SE, µM) NET
[5] = cells stably expressing SERT; [3H]-serotonin 1 µM; screening cut-off 50 µM; read-out: Reuptake Inhibition (IC50 ± SE, µM) SERT
[6] = read-out: Reuptake Inhibition (IC50 ± SE, µM) DAT
[7] = Reuptake Inhibition (IC50 ± SE, µM) NET, cells stably expressing NET; [3H]-noradrenaline 1 µM; screening cut-off 50 µM
[8] = read-out: Reuptake Inhibition (IC50 ± SE, µM) NET; cells stably expressing NET; [3H]-noradrenaline 1 µM; screening cut-off 50 µM
[9] = read-out: Reuptake Inhibition (IC50 ± SE, µM) SERT; cells stably expressing SERT; [3H]-serotonin 1 µM; screening cut-off 50 µM
[10] = Reuptake Inhibition (IC50 ± SE, µM) DAT
[11] = Reuptake Inhibition (IC50 ± SE, µM) SERT, cells stably expressing SERT; [3H]-serotonin 1 µM; screening cut-off 50 µM
[12] = at 50 µM / tested concentration range

Row | Compound | IC50 [1, 4] [µM] | IC50 [2, 5] [µM] | IC50 [3, 6] [µM] | IC50 [1, 7] [µM] | IC50 [3, 10] [µM] | IC50 [2, 11] [µM] | other results
1 | [O-][S+](Cc1cccs1)C(c1ccccc1)c1ccc(F)cc1 (stereo not drawn) [Compound 8c, 2-((((4-fluorophenyl)(phenyl)methyl)sulfinyl)methyl)thiophene] | > 50 | 24 ± 6 | 5.2 ± 0.1 | – | – | – | –
2 | Cc1ccc([C@H](c2ccccc2)[S@@+]([O-])Cc2cccs2)cc1 [Compound 7n, (S,S)-2-(((phenyl(p-tolyl)methyl)sulfinyl)methyl)thiophene] | – | > 50 | 1.63 ± 0.1 | > 50 | – | – | –
3 | [O-][S+](Cc1cccs1)C(c1ccccc1)c1ccccc1I (stereo not drawn) [Compound 8i, 2-((((2-iodophenyl)(phenyl)methyl)sulfinyl)methyl)thiophene] | – | – | – | – | 9.6 ± 1.2 | – | IC50 [1, 8]: > 50 µM; IC50 [2, 9]: > 50 µM
4 | [O-][S+](Cc1cccs1)C(c1ccccc1)c1ccc(C(F)(F)F)cc1 (stereo not drawn) [Compound 8q, 2-(((phenyl(4-(trifluoromethyl)phenyl)methyl)sulfinyl)methyl)thiophene] | – | – | – | – | 21 ± 2 | 4.7 ± 0.5 | IC50 [1, 8]: > 50 µM
5 | COc1cccc(C(c2ccccc2)[S+]([O-])Cc2cccs2)c1 (stereo not drawn) [Compound 7s, 2-((((3-methoxyphenyl)(phenyl)methyl)sulfinyl)methyl)thiophene] | – | – | – | – | 1.56 ± 0.24 | > 50 | IC50 [1, 8]: > 50 µM
6 | COc1ccc([C@H](c2ccccc2)[S@+]([O-])Cc2cccs2)cc1 [Compound 8t, (R,S)-2-((((4-methoxyphenyl)(phenyl)methyl)sulfinyl)methyl)thiophene] | – | – | – | > 50 | > 50 | > 50 | –
7 | Cc1ccccc1C(c1ccccc1)[S+]([O-])Cc1cccs1 (stereo not drawn) [Compound 5l, 2-(((phenyl(o-tolyl)methyl)sulfinyl)methyl)thiophene] | > 50 | > 50 | 15.6 ± 1 | – | – | – | –
8 | [O-][S+](Cc1cccs1)C(c1ccccc1)c1cccc(F)c1 (stereo not drawn) [Compound 5b, 2-((((3-fluorophenyl)(phenyl)methyl)sulfinyl)methyl)thiophene] | > 50 | > 50 | 3.2 ± 0.4 | – | – | – | –
9 | Cc1cccc([C@@H](c2ccccc2)[S@@+]([O-])Cc2cccs2)c1 [Compound 5m, (S,R)-2-(((phenyl(m-tolyl)methyl)sulfinyl)methyl)thiophene] | – | – | – | > 50 | 2.2 ± 0.4 | > 50 | –
10 | [O-][S+](Cc1cccs1)C(c1ccccc1)c1cccc(C(F)(F)F)c1 (stereo not drawn) [Compound 6p, 2-(((phenyl(3-(trifluoromethyl)phenyl)methyl)sulfinyl)methyl)thiophene] | – | – | – | – | 22 ± 1 | > 50 | IC50 [1, 8]: > 50 µM
11 | [O-][S@+](Cc1cccs1)[C@H](c1ccccc1)c1ccccc1Cl [Compound 5d, (R,R)-2-((((2-chlorophenyl)(phenyl)methyl)sulfinyl)methyl)thiophene] | > 50 | > 50 | > 50 | – | – | – | activity on NET (reuptake inhibition), in words [1, 12]: did not achieve ≥50% of radioligand displacement; activity on SERT (reuptake inhibition), in words [2, 12]: did not achieve ≥50% of radioligand displacement; activity on DAT (reuptake inhibition), in words [3]: did not achieve ≥50% of radioligand displacement
12 | [O-][S+](Cc1cccs1)C(c1ccccc1)c1ccc(C(F)(F)F)cc1 (stereo not drawn) [Compound 5q, 2-(((phenyl(4-(trifluoromethyl)phenyl)methyl)sulfinyl)methyl)thiophene] | – | – | – | > 50 | 17 ± 2 | > 50 | –
13 | [O-][S+](Cc1cccs1)C(c1ccccc1)c1ccccc1Br (stereo not drawn) [Compound 5g, 2-((((2-bromophenyl)(phenyl)methyl)sulfinyl)methyl)thiophene] | – | – | – | > 50 | > 50 | > 50 | activity on NET (reuptake inhibition), in words [1, 12]: no effect; activity on SERT (reuptake inhibition), in words [2, 12]: no effect; activity on DAT (reuptake inhibition), in words [3]: no effect
14 | [O-][S@@+](Cc1cccs1)[C@H](c1ccccc1)c1ccccc1Cl [Compound 8d, (S,R)-2-((((2-chlorophenyl)(phenyl)methyl)sulfinyl)methyl)thiophene] | > 50 | > 50 | 2.55 ± 0.04 | – | – | – | –
15 | [O-][S+](Cc1cccs1)C(c1ccccc1)c1cccc(F)c1 (stereo not drawn) [Compound 7b, 2-((((3-fluorophenyl)(phenyl)methyl)sulfinyl)methyl)thiophene] | > 50 | > 50 | 2.3 ± 0.2 | – | – | – | –
16 | [O-][S+](Cc1cccs1)C(c1ccccc1)c1ccccc1I (stereo not drawn) [Compound 5i, 2-((((2-iodophenyl)(phenyl)methyl)sulfinyl)methyl)thiophene] | – | – | – | > 50 | > 50 | > 50 | –
17 | [O-][S+](Cc1cccs1)C(c1ccccc1)c1cccc(I)c1 (stereo not drawn) [Compound 6j, 2-((((3-iodophenyl)(phenyl)methyl)sulfinyl)methyl)thiophene] | – | – | – | – | 17.7 ± 2.2 | – | IC50 [1, 8]: > 50 µM; IC50 [2, 9]: > 50 µM
18 | [O-][S@@+](Cc1cccs1)[C@H](c1ccccc1)c1ccccc1F [Compound 8a, (S,R)-2-((((2-fluorophenyl)(phenyl)methyl)sulfinyl)methyl)thiophene] | > 50 | > 50 | 1.09 ± 0.07 | – | – | – | –
19 | [O-][S+](Cc1cccs1)C(c1ccccc1)c1ccccc1Br (stereo not drawn) [Compound 7g, 2-((((2-bromophenyl)(phenyl)methyl)sulfinyl)methyl)thiophene] | – | – | – | – | > 50 | – | activity on NET (reuptake inhibition), in words [1, 12]: no effect; IC50 [1, 8]: > 50 µM; activity on SERT (reuptake inhibition), in words [2, 12]: no effect; IC50 [2, 9]: > 50 µM; activity on DAT (reuptake inhibition), in words [3]: no effect
20 | [O-][S@+](Cc1cccs1)[C@H](c1ccccc1)c1ccc(Cl)cc1 [Compound 8f, (R,R)-2-((((4-chlorophenyl)(phenyl)methyl)sulfinyl)methyl)thiophene] | – | – | – | > 50 | 4.9 ± 0.6 | > 50 | –
21 | Cc1cccc([C@H](c2ccccc2)[S@@+]([O-])Cc2cccs2)c1 [Compound 7m, (S,S)-2-(((phenyl(m-tolyl)methyl)sulfinyl)methyl)thiophene] | – | – | – | 49 ± 3 | 1.2 ± 0.09 | > 50 | –
22 | [O-][S@+](Cc1cccs1)[C@H](c1ccccc1)c1cccc(Cl)c1 [Compound 8e, (R,R)-2-((((3-chlorophenyl)(phenyl)methyl)sulfinyl)methyl)thiophene] | – | – | – | 48 ± 6 | 0.83 ± 0.16 | 19 ± 1 | –
